# Experimental data as given in patent US10604509B2, “Nrf2 regulators” (GlaxoSmithKline Intellectual Property Development Limited, priority 2015, dated 2020).
# pEC50: −log10 of the molar value. Counter-ions that a name gives are not always drawn.
# Test system: NQO1 specific enzyme activity in BEAS-2B cells
# Assay: BEAS-2B NQO1 MTT assay
# Type: cell-based
# Details: BEAS-2B cells, 48 hours with compound, MTT readout; read-out: EC50 of NQO1 specific activity induction
# In short: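 BEAS-2B cells treated with compound 48 h at 37° C, 5% CO2, then lysed; NQO1 activity in lysate measured kinetically by MTT cocktail at Absorbance 570 nm over 30 min. EC50 for induction from Delta OD/min versus log concentration, 3-parameter fit; Cell Titer Glo run on lysate aliquot.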
row,Structure (SMILES),pEC50
1,"CC[C@@H]1CN(Cc2cc([C@H](c3ccc4c(nnn4CC)c3C)[C@H](C)C(=O)O)ccc2C)Cc2ccccc2O1 [Example 199, (2S,3R)-3-(3-(((R)-2-Ethyl-2,3-dihydrobenzo[f][1,4]oxazepin-4(5H)-yl)methyl)-4-methylphenyl)-3-(1-ethyl-4-methyl-1H-benzo[d][1,2,3]triazol-5-yl)-2-methylpropanoic acid]",7.00 to 8.00
2,"CCn1cc(CCC(c2ccc(C)c(CN3Cc4cnccc4OC(C)(C)C3)c2)C(C)C(=O)O)nn1 (single isomer, unassigned) [Example 228, 3-(3-((2,2-Dimethyl-2,3-dihydropyrido[3,4-f][1,4]oxazepin-4(5H)-yl)methyl)-4-methylphenyl)-5-(1-ethyl-1H-1,2,3-triazol-4-yl)-2-methylpentanoic acid]",6.00 to 7.00
3,"CCC1CCN(Cc2nccn2Cc2cc(C(CCc3cn(CC)nn3)C(C)(C)C(=O)O)ccc2C)CC1 (single isomer, unassigned) [Example 250, 5-(1-ethyl-1H-1,2,3-triazol-4-yl)-3-(3-((2-((4-ethylpiperidin-1-yl)methyl)-1H-imidazol-1-yl)methyl)-4-methylphenyl)-2,2-dimethylpentanoic acid]",7.00 to 8.00

# Same assay, conditions: Homo sapiens, BEAS-2B, 48 h, BEAS-2B cells, 48 hours with compound, MTT readout; read-out: EC50 of NQO1 specific activity induction
row,Structure (SMILES),pEC50
1,"Cc1ccc(C(CC(=O)O)c2ccc3c(nnn3C)c2C)cc1CN1Cc2cc(C#N)ccc2OC(C)(C)C1 (single isomer, unassigned) [Example 171]",7.00 to 8.00
2,CC[C@@H]1CN(Cc2cc([C@@H](c3ccc4c(nnn4C)c3C)C(C)(C)C(=O)O)ccc2C)Cc2cnc(Cl)cc2O1 [Example 29],> 9.00
3,"CC[C@@H]1CN(Cc2cc([C@@H](c3ccc4c(nnn4CC)c3F)[C@@H](C)C(=O)O)ccc2C)Cc2cccc(F)c2O1 [Example 192, (2R,3S)-3-(1-Ethyl-4-fluoro-1H-benzo[d][1,2,3]triazol-5-yl)-3-(3-(((R)-2-ethyl-9-fluoro-2,3-dihydrobenzo[f][1,4]oxazepin-4(5H)-yl)methyl)-4-methylphenyl)-2-methylpropanoic acid]",8.00 to 9.00
4,"CC[C@@H]1CN(Cc2cc([C@H](c3ccc4c(nnn4C)c3C)C(C)(C)C(=O)O)ccc2C)Cc2cnccc2O1 [Example 204, (R)-3-(1,4-Dimethyl-1H-benzo[d][1,2,3]triazol-5-yl)-3-(3-(((R)-2-ethyl-2,3-dihydropyrido[3,4-f][1,4]oxazepin-4(5H)-yl)methyl)-4-methylphenyl)-2,2-dimethylpropanoic Acid, 0.5 Ethanol]",6.00 to 7.00
5,"CC[C@@H]1CN(Cc2cc([C@@H](c3ccc4c(nnn4C)c3C)C(C)(C)C(=O)O)ccc2C)Cc2cncc(F)c2O1 [Example 28, (S)-3-(1,4-Dimethyl-1H-benzo[d][1,2,3]triazol-5-yl)-3-(3-(((R)-2-ethyl-9-fluoro-2,3-dihydropyrido[3,4-f][1,4]oxazepin-4(5H)-yl)methyl)-4-methylphenyl)-2,2-dimethylpropanoic acid]",> 9.00
6,"Cc1ccc(C(CC(=O)O)c2ccc3c(nnn3C)c2C)cc1CN1Cc2ccccc2OC(C)(C)C1 (centres unmarked) [Example 89, 3-(1,4-Diemthyl-1H-benzo[d][1,2,3]triazol-5-yl)-3-(3-((2,2-dimethyl-2,3-dihydrobenzo[f][1,4]oxazepin-4(5H)-yl)methyl)-4-methylphenyl)propanoic acid]",7.00 to 8.00
7,"Cc1ccc(C(CC(=O)O)c2ccc(F)cc2C)cc1Cn1ccnc1CC1CCCCC1 (centres unmarked) [Example 135, 3-(3-((2-(Cyclohexylmethyl)-1H-imidazol-1-yl)methyl)-4-methylphenyl)-3-(4-fluoro-2-methylphenyl)propanoic Acid]",7.00 to 8.00
8,"CCC1(C)CN(Cc2cc([C@@H](c3ccc4c(nnn4C)c3C)C(C)(C)C(=O)O)ccc2C)Cc2ccccc2O1 (stereo partly drawn) [Example 240, (3S)-3-(1,4-Dimethyl-1H-benzo[d][1,2,3]triazol-5-yl)-3-(3-((2-ethyl-2-methyl-2,3-dihydrobenzo[f][1,4]oxazepin-4(5H)-yl)methyl)-4-methylphenyl)-2,2-dimethylpropanoic Acid]",8.00 to 9.00
9,"CC[C@@H]1CN(Cc2cc([C@@H](c3ccc4c(nnn4C)c3C)C(C)(C)C(=O)O)ccc2C)Cc2ccncc2O1 [Example 219, (S)-3-(1,4-Dimethyl-1H-benzo[d][1,2,3]triazol-5-yl)-3-(3-(((R)-2-ethyl-2,3-dihydropyrido[4,3-f][1,4]oxazepin-4(5H)-yl)methyl)-4-methylphenyl)-2,2-dimethylpropanoic Acid, Trifluoroacetate]",8.00 to 9.00
10,"Cc1ccc(C(c2ccc3c(nnn3C)c2C)C(C)(C)C(=O)O)cc1CN1CCCc2ccccc2C1 (centres unmarked) [Example 104, 3-(3-((4,5-Dihydro-1H-benzo[c]azepin-2(3H)-yl)methyl)-4-methylphenyl)-3-(1,4-dimethyl-1H-benzo[d][1,2,3]triazol-5-yl)-2,2-dimethylpropanoic acid]",8.00 to 9.00
11,"CCN1CCN(Cc2cc(C(c3ccc4c(nnn4C)c3C)C(C)(C)C(=O)O)ccc2C)Cc2ccccc21 (centres unmarked) [Example 111, 3-(1,4-dimethyl-1H-benzo[d][1,2,3]triazol-5-yl)-3-(3-((1-ethyl-2,3-dihydro-1H-benzo[e][1,4]diazepin-4(5H)-yl)methyl)-4-methylphenyl)-2,2-dimethylpropanoic Acid, Formic Acid Salt]",7.00 to 8.00
12,"Cc1ccc(C(CC(=O)O)c2ccc3c(nnn3C)c2C)cc1CN1Cc2cccnc2OC(C)(C)C1 (centres unmarked) [Example 96, 3-(1,4-Dimethyl-1H-benzo[d][1,2,3]triazol-5-yl)-3-(3-((2,2-dimethyl-2,3-dihydropyrido[3,2-f][1,4]oxazepin-4(5H)-yl)methyl)-4-methylphenyl)propanoic Acid]",6.00 to 7.00
13,"Cc1c(C(CC(=O)O)c2ccc(Cl)c(CN3CCOc4ccccc4C3)c2)ccc2c1nnn2C (centres unmarked) [Example 99, 3-(4-Chloro-3-((2,3-dihydrobenzo[f][1,4]oxazepin-4(5H)-yl)methyl)phenyl)-3-(1,4-dimethyl-1H-benzo[d][1,2,3]triazol-5-yl)propanoic Acid, Formic Acid Salt]",5.00 to 6.00
14,"Cc1ccc([C@@H](CC(=O)O)c2ccc3c(nnn3C)c2C)cc1CN1Cc2ccc(F)cc2OC(C)(C)C1 [Example 59, (R)-3-(1,4-Dimethyl-1H-benzo[d][1,2,3]triazol-5-yl)-3-(3-((8-fluoro-2,2-dimethyl-2,3-dihydrobenzo[f][1,4]oxazepin-4(5H)-yl)methyl)-4-methylphenyl)propanoic acid]",7.00 to 8.00
15,"CC[C@@H]1CN(Cc2cc([C@@H](c3ccc4c(nnn4C)c3C)C(C)(C)C(=O)OCOC(=O)C(C)(C)C)ccc2C)Cc2cnccc2O1 [Example 253, (S)-(Pivaloyloxy)methyl 3-(1,4-dimethyl-1H-benzo[d][1,2,3]triazol-5-yl)-3-(3-(((R)-2-ethyl-2,3-dihydropyrido[3,4-f][1,4]oxazepin-4(5H)-yl)methyl)-4-methylphenyl)-2,2-dimethylpropanoate]",> 9.00
16,"CC[C@@H]1CN(Cc2cc([C@@H](c3ccc4c(nnn4C)c3C)[C@@H](C)C(=O)O)ccc2C)Cc2ccccc2O1 [Example 38, (2R,3S)-3-(1,4-dimethyl-1H-benzo[d][1,2,3]triazol-5-yl)-3-(3-(((R)-2-ethyl-2,3-dihydrobenzo[f][1,4]oxazepin-4(5H)-yl)methyl)-4-methylphenyl)-2-methylpropanoic Acid, Formic Acid Salt]",7.00 to 8.00
17,"Cc1ccc(C(CC(=O)O)c2ccc3c(nnn3C)c2C)cc1CN1Cc2ccccc2OC(C)C1 (centres unmarked) [Example 3, trifluoroacetic Acid Salt]",5.00 to 6.00
